Measured values taken from publication PMC12818745 (ACS Chemical Neuroscience, 2025).

Experiments:
Aβ42 peptide = target: T1, Aβ42 peptide (Homo sapiens, UniProt P05067); assay: TEM of Aβ42 fibril growth; conditions: Aβ42 10 μM, compound 50 μM, 6–48 h, 37 °C
T1 construct: Synthetic Aβ42 (GenScript) was dissolved in hexafluoro-2-propanol (HFIP); purchased GenScript; host or cells: chemical synthesis
Experimental: We selected compound 11r for further investigation of its ability to interfere with the Aβ42 aggregation process in vitro. The decision was based on the structural potential of the chromeno[3,4-b]-xanthone scaffold, the encouraging results for 11r, and its overall profile in our preliminary studies. […] The morphological changes of Aβ42 species were assessed through transmission electron microscopy (TEM), in the presence and absence of 11r. […] In the absence of 11r (Figure , top panels), as early as 6 h of incubation at 37 °C, (white arrow), short (white arrowhead) and long fibrils were detected. As incubation progressed, long fibrils were more abundant, while other species became scarce, resulting in bundles of tangled fibrils after 48 h (Figure ).
Synthetic Aβ42 (GenScript) was dissolved in hexafluoro-2-propanol (HFIP) (Merck) and left at room temperature (RT) for 48 h. Subsequently, the HFIP was removed using a stream of nitrogen, and the resulting powder was dissolved in dimethyl sulfoxide (DMSO) (Sigma-Aldrich) at a concentration of 2000 μM. […]
The βnalysis of the morphology and fibril formation of samples coincubated with Aβ42 (10 μM) (GenScript) and the selected compounds (50 μM) at different time-points (6, 12, 24, and 48 h) at 37 °C, was assessed through TEM. […]

Tau protein aggregation = target: T2, Tau protein aggregation (Homo sapiens, UniProt P10636); assay: Thioflavin S assay of tau protein aggregation in E. coli cells overexpressing tau; assay type: cell-based, Escherichia coli; conditions: read-out: Tau inhibition %
T2 construct: For the cloning and overexpression of full-length tau protein; expressed in transfected cells; host or cells: E. coli BL21 (DE3) carrying pTARA and pRKT42
T2 sequence (P10636 other isoform, or with tags, fused parts or gaps): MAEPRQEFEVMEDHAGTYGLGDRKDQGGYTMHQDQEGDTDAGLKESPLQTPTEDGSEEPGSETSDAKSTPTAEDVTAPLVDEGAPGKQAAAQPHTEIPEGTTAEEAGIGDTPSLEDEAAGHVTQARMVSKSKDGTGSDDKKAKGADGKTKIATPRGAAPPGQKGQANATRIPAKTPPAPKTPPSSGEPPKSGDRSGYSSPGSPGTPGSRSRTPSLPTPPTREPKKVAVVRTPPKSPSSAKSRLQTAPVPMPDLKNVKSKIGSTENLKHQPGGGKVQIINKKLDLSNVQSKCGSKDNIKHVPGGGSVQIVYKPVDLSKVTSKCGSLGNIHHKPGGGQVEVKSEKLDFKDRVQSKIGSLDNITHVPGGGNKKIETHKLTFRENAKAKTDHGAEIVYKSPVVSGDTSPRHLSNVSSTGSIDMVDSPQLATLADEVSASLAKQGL
Experimental: The antiaggregating profiles of both series A and B were evaluated using a fluorescence Thioflavin S (ThS) assay in cellulo, which monitors ThS fluorescence in the presence of β-sheet-rich structures, such as Aβ and tau protein aggregates. This method, based on recombinant Escherichia coli (E. coli) bacteria overexpressing insoluble aggregates, offers a simple and cost-effective approach to model aggregation processes in mammalian systems and has been validated for use in drug discovery studies. , Compounds were tested at a screening concentration of 50 μM for their ability to inhibit Aβ42 aggregation. The results, summarized in Table , reveal distinct antiaggregating profiles between series A and B, which are once again influenced by their structural differences.
This strategic extension aimed to validate the chromeno[3,4-b]-xanthone scaffold for related aggregation targets, considering the structural and pathological similarities between Aβ and tau aggregation processes. […]. […] Nevertheless, it is important to interpret the results cautiously, as the inability of certain compounds to cross bacterial membranes, may have underestimated their true inhibitory activity in the assay.
For the cloning and overexpression of full-length tau protein, E. coli BL21 (DE3) competent cells were transformed first with the pTARA vector containing the RNA polymerase gene of phage T7 (T7RP), controlled by the PBAD promoter. Subsequently, E. coli BL21(DE3) competent cells containing pTARA were transformed with the pRKT42 vector encoding four repeats of tau protein in two inserts. Similar to the procedure for Aβ42, overnight cultures were prepared by inoculating colonies of BL21 (DE3) cells bearing the plasmids in M9 medium supplemented with 0.5% glucose, 50 μg mL^–1 ampicillin, and 12.5 μg mL^–1 chloramphenicol at 37 °C. Upon induction, a 1:500 dilution of the overnight culture was added to fresh M9 minimal medium containing 0.5% glucose, 50 μg mL^–1 ampicillin, 12.5 μg mL^–1 chloramphenicol, and 25 μM ThS. The subsequent steps mirrored those for the Aβ assay, including the addition of the compound to be tested dissolved in DMSO and 10 μL of 25% arabinose or, alternatively, 10 μL of water for the noninduced controls, with a final compound concentration of […]. Negative controls for tau overexpression utilized free DMSO.
ThS (T1892) and all other chemical reagents were purchased from Sigma (St. Louis, MO). Stock solutions of ThS (250 μM) were prepared using doubly distilled water purified via a Milli-Q system (Millipore). For the fluorescence assay, ThS spectra were recorded utilizing an AmincoBowman series 2 luminescence spectrophotometer (Aminco-Bowman AB2, SLM Aminco, Rochester, NY) within the range of 460 to 600 nm at a temperature of 25 °C. The excitation wavelength employed was 445 nm, with slit widths set at 4 nm. The emission at 485 nm, corresponding to the ThS peak observed in the presence of amyloids, was recorded. To standardize ThS fluorescence relative to bacterial concentration in both in vitro and cell-based assays, the OD600 was determined using a Shimadzu UV-2401 PC UV–vis spectrophotometer. Fluorescence normalization was executed by setting the ThS fluorescence of bacterial cells expressing the peptide or protein in the absence of the drug as 100%, while that of bacterial cells not expressing the peptide or protein was established as 0%.

T1 sequence (P05067 672-713 limits assumed): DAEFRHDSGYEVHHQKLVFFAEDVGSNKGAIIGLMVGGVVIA

## COc1ccc2c(=O)c3cc4c(cc3oc2c1)-c1cc(Cl)ccc1OC4 [Compound 11r, 2-Chloro-11-methoxy-6H,8H-chromeno[3,4-b]xanthen-8-one]
Aβ42 peptide
  Effect on Aβ42 fibril morphology (TEM): inhibiting Aβ42 fibrillogenesis
Tau protein aggregation
  inhibition at 50 µM: 61.3 ± 5.9%
